ChEMBL document CHEMBL5241067, “An insight in anti-malarial potential of indole scaffold: A review” (Eur J Med Chem, 2021)
pEC50, pIC50: −log10 of the molar value. Values after ≈ are worked out from the molar mass of the structure shown. Values belong to the molecule of their own block, whether it stands above or below them.

Assays:
[1] = test system: Plasmodium falciparum; test: Antimalarial activity against […] Plasmodium falciparum D6 assessed as growth inhibition; format: functional, organism-based
[2] = test system: Plasmodium falciparum; test: Antimalarial activity against chloroquine-resistant Plasmodium falciparum W2 assessed as growth inhibition; format: functional, organism-based
[3] = test system: Plasmodium falciparum; test: Antiplasmodial activity against chloroquine-resistant Plasmodium falciparum DD2 assessed as growth inhibition; format: functional, organism-based
[4] = test system: Plasmodium falciparum; test: Antiplasmodial activity against Plasmodium falciparum NF54 assessed as growth inhibition; format: functional, organism-based
[5] = test system: Plasmodium falciparum; test: Antiplasmodial activity against chloroquine, pyrimethamine and mefloquine-resistant Plasmodium falciparum assessed as growth inhibition; format: functional, organism-based
[6] = test system: Plasmodium falciparum; test: Antiplasmodial activity against multidrug-resistant Plasmodium falciparum assessed as growth inhibition; format: functional
[7] = Cytotoxicity against HEK293 cells; format: toxicity, cell-based; settings: human
[8] = test system: Plasmodium falciparum; test: Antiplasmodial activity against Plasmodium falciparum DD2 assessed as growth inhibition; format: functional, organism-based
[9] = test system: Plasmodium falciparum; test: Antiplasmodial activity against multidrug resistant Plasmodium falciparum K1 assessed as growth inhibition; format: functional, organism-based
[10] = test system: Plasmodium berghei; test: In vivo antimalarial activity against Plasmodium berghei infected in mouse assessed as supression of parasitemia at 20 to 25 mg/kg, po measured for 4 days; format: functional; settings: dose 20-25 mg/kg, time 4 day
[11] = test system: Plasmodium falciparum; test: Antiplasmodial activity against Plasmodium falciparum; format: functional, organism-based
[12] = test system: KB; test: Cytotoxicity against human KB cells; format: functional; settings: read-out: ED50 (the source's name)

Compound: Cc1cc(-c2cc(-c3ccc(F)cc3)nc(-c3c[nH]c4ccccc34)c2C#N)cc(C)c1C
- pIC50 [1]: 5.27
- pIC50 [2]: 5.53

Compound: O=C1c2ccccc2-n2c1nc1ccccc1c2=O [TRYPTANTHRIN]
- pIC50 [3]: 6.94
- pIC50 [4]: 6.54
- IC50 [5]: 0.069 µg/mL (≈ 0.278 µM)
- Activity [6]: 100 ng/mL

Compound: N#Cc1c(-c2ccc(F)c(F)c2)cc(-c2ccc(F)cc2)nc1-c1c[nH]c2ccccc12
- pIC50 [1]: 5.17
- pIC50 [2]: 5.42

Compound: N#Cc1c(-c2ccc(F)cc2)cc(-c2ccccc2)nc1-c1c[nH]c2ccccc12
- pIC50 [1]: 5.83
- pIC50 [2]: 5.52

Compound: CC1(C)[C@H](Cc2[nH]c3ccccc3c2CC[N+](C)(C)O)O[C@]23OC[C@H](O)[C@H]2OC(=O)[C@]13O
- pIC50 [7]: 7.10

Compound: N#Cc1c(-c2ccc(F)c(F)c2)cc(-c2ccccc2)nc1-c1c[nH]c2ccccc12
- pIC50 [1]: 5.81
- pIC50 [2]: 5.94

Compound: O=C1c2cc(Br)ccc2-n2c1nc1cc(Cl)ccc1c2=O
- pIC50 [8]: 6.62
- pIC50 [4]: 7.44

Compound: O=C1c2cc(F)ccc2-n2c1nc1ccccc1c2=O
- pIC50 [8]: 7.00
- pIC50 [4]: 7.24

Compound: O=C1c2cc([N+](=O)[O-])ccc2-n2c1nc1cc(Cl)ccc1c2=O
- pIC50 [8]: 7.51
- pIC50 [4]: 7.48

Compound: Cn1c2c3cc(Br)ccc3nc-2cc2cc(Br)ccc21
- pIC50 [9]: 7.30
- Activity [10]: 89%

Compound: O=C1c2cc(Br)ccc2-n2c1nc1ccc(Cl)cc1c2=O
- pIC50 [8]: 6.91
- pIC50 [4]: 7.44

Compound: Cc1cc(-c2cc(-c3ccccc3)nc(-c3c[nH]c4ccccc34)c2C#N)cc(C)c1C
- pIC50 [1]: 5.80
- pIC50 [2]: 5.57

- pIC50 [11]: 5.47
Compound: O=C1NCCc2c[nH]c3ccc4c(c23)[C@@H]1[C@H](c1ccc2c(c1)OCO2)O4
- pEC50 [12]: 4.62

Compound: N#Cc1c(-c2ccc(F)c(F)c2)cc(-c2ccc(Br)cc2)nc1-c1c[nH]c2ccccc12
- pIC50 [1]: 5.18
- pIC50 [2]: 5.32
